Results reported in US20230114728A1 (Venatorx Pharmaceuticals, Inc., priority 2019, published 2023).
≈ marks a conversion by molar mass, not a printed value.

Columns and labels:
N. gonorrhoeae FA1090 = experiment: Liquid broth MIC in Fastidious broth; type: cell-based; conditions: Neisseria gonorrhoeae; N. gonorrhoeae strain FA1090; Fastidious broth; read-out: Minimum Inhibitory Concentration, N. gonorrhoeae FA1090
Method: (§1) Example V: In Vitro Antibacterial Assays for N. gonorrhoeae Strains
(§2) Additional antibacterial testing of the series was performed in 8 reference strains of N. gonorrhoeae (ATCC 49226, FA1090, WHO G, WHO L, WHO K, H041, WHO Z, and WHO Q). ATCC 49226, FA1090, WHO G, and WHO L produce wild type or wild-type like PBP2. WHO K, H041, WHO Z, and WHO Q produce mosaic PBP2. Liquid broth-based assays were used for antibacterial testing of PBP inhibitors in Neisseria gonorrhoeae. Briefly, cryo-preserved bacterial cultures of clinical strains were streaked for isolation on Chocolate Agar (72 g/L (2×) GC Agar Base (BD #228950) and 2% (2×) Hemoglobin was autoclaved at 121° C. for 20 minutes to sterilize. Once cooled to ˜50° C. the 2× GC Agar Base and 2× Hemoglobin solutions are combined and 1% IsoVitaleX Enrichment (BD #211876) was added to the solution). Strains were incubated at 36° C. and 5% CO2 to allow growth of colonies, 24 hours before inoculum preparation. 2-fold serial dilutions of test compounds were conducted in a 96 well plate with a final volume of 75 μL per well at 2-fold the final desired concentration in Fastidious broth (Remel #R07664). For preparation of assay inoculum, a direct suspension was prepared by aseptically swabbing all colonies from agar plates into culture tubes containing 2 mL of fresh sterile saline. After the dilution plates were set up, direct suspensions were then diluted in a cuvette containing sterile saline and the optical density was measured at 600 nm. Inocula were diluted such that 75 μL of this culture in Fastidious broth results in a starting bacterial concentration of 5×10^5 CFU/mL when added to the dilution plates. The plates were incubated for ˜24 hours at 36° C. and 5% CO2. The MIC was read visually as the lowest concentration well with <10% bacterial growth compared to wells of full growth.

N. gonorrhoeae H041 = experiment: Liquid broth MIC in Fastidious broth; type: cell-based; conditions: Neisseria gonorrhoeae, H041, read-out: Minimum Inhibitory Concentration, N. gonorrhoeae H041
Method: as §1, §2

[1] = test system: N. gonorrhoeae ATCC 49226; experiment: Liquid broth MIC in Fastidious broth; type: cell-based; conditions: Neisseria gonorrhoeae, ATCC49226; N. gonorrhoeae strain ATCC 49226; Fastidious broth; read-out: Minimum Inhibitory Concentration, N. gonorrhoeae ATCC 49226
Method: as §1, §2

N. gonorrhoeae WHO K = experiment: Liquid broth MIC in Fastidious broth; type: cell-based; conditions: Neisseria gonorrhoeae, read-out: Minimum Inhibitory Concentration, N. gonorrhoeae WHO K
Method: as §1, §2

N. gonorrhoeae WHO G = experiment: Liquid broth MIC in Fastidious broth; type: cell-based; conditions: Neisseria gonorrhoeae; N. gonorrhoeae strain WHO G; Fastidious broth; read-out: Minimum Inhibitory Concentration, N. gonorrhoeae WHO G
Method: as §1, §2

N. gonorrhoeae WHO L = experiment: Liquid broth MIC in Fastidious broth; type: cell-based; conditions: Neisseria gonorrhoeae; N. gonorrhoeae strain WHO L; Fastidious broth; read-out: Minimum Inhibitory Concentration, N. gonorrhoeae WHO L
Method: as §1, §2

N. gonorrhoeae WHO Z = experiment: Liquid broth MIC in Fastidious broth; type: cell-based; conditions: Neisseria gonorrhoeae, read-out: Minimum Inhibitory Concentration, N. gonorrhoeae WHO Z
Method: as §1, §2

E. coli K12 PBP3 = target: T1, E. coli K12 PBP3 (Escherichia coli, UniProt P0AD68); experiment: biochemical; type: binding
T1 construct: made in house
T1 sequence (P0AD68 1-577): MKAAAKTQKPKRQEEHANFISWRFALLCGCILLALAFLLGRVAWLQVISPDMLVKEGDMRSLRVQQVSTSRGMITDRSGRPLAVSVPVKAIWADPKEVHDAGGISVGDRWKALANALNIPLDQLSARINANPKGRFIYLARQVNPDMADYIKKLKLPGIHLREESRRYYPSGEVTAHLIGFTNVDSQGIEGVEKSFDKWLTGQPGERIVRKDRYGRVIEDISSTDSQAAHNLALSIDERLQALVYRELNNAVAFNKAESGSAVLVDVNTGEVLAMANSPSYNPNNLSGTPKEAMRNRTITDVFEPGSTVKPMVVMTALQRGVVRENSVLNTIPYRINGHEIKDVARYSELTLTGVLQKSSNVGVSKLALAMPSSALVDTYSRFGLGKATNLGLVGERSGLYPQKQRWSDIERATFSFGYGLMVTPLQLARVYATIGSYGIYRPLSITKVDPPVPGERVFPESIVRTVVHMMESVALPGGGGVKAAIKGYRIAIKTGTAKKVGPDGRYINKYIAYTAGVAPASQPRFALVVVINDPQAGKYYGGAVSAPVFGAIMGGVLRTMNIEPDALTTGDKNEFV
Outline: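 A. baumannii PBP2 (2.5 μM) and PBP3 (0.2 μM) were run in 25 mM Tris pH 8.0 buffer with Tween 20; E. coli PBP3 (1.5 μM) and N. gonorrhoeae PBP2 ([…]) in 50 mM Hepes pH 8.0 buffer.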

[2] = Bocillin-FL fluorescence polarization competition binding assay, A. baumannii PBP3; conditions: fluorescence polarization competition binding assay using Bocillin-FL; column 3; read-out: 4. baumannii PBP1a Potency
Text: (§3) Example I: Experimental Method for Penicillin-Binding Protein Binding Assays with Bocillin-FL Via Fluorescence Polarization
(§4) To determine the ability of boronic acid-based test PBP inhibitors to bind Penicillin Binding Proteins (PBPs), Bocillin-FL (fluorescently-labeled penicillin V; ThermoFisher Scientific) was used in a fluorescence polarization (FP) competition binding assay to assess inhibitor binding to PBP2, PBP3 or PBP4 from Escherichia coli (K12), PBP3 from Pseudomonas aeruginosa (PA01), PBP1a, PBP2 and PBP3 from Acinetobacter baumannii (ATCC 19606), and PBP2 from Neiserria gonorrheae (FA19). PBPs were cloned and purified as described previously (E. coli PBPs, King, D. T, et al., ACS Infectious Diseases 2015, 1, 175-184; P. aeruginosa PBP3, Han et. al., PNAS 2010, 107 (51), 22002-22007; A. baumannii PBPs, Penwell et. al., Antimicrob. Agents Chemother. 2015, 59 (3), 1680-1689; N. gonorrhoeae PBP2, Singh et. al., J Biol. Chem. 2019, 294 (38), 14020-14032). To establish assay conditions for competition binding, enzyme titration/saturation binding experiments were initially performed. Bocillin-FL was prepared at 0.2 μM in a buffer comprised of 50 mM Hepes (pH 8.0), 300 mM NaCl and 5% (v/v) glycerol for reactions with E. coli, P. aeruginosa and N. gonorrhoeae PBPs, and 25 mM Tris (pH 8.0), 200 mM NaCl and 10% (v/v) glycerol and 0.005% (v/v) Tween 20 for reactions with A. baumannii PBPs. Saturation binding was performed by mixing 40 μl of PBP solutions ranging in concentrations from 0-24 μM with 40 μl of the 0.2 μM Bocillin-FL solution, in individual wells of a black 384-well microplate. FP was measured immediately upon mixing (Excitation, 490 nm; Emission, 520 nm; g-factor, 0.96), using a Cytation3 (BioTek) microplate reader and measured continuously for up to 120 minutes. […] The competition binding assay (80 μl final volume) was validated using beta-lactams and PBPs at final concentrations of: 1.5 μM, E. coli PBP3; 0.75 μM, P. aeruginosa PBP3; 1 μM A. baumannii PBP1a; 2.5 μM A. baumannii PBP2; 0.2 μM A. baumannii PBP3; and […] N. gonorrhoeae PBP2. Bocillin-FL was at 0.1 μM (0.05 μM with A. baumannii PBP1a) and beta-lactam concentrations ranged from 0-1000 μM. […] Bocillin-FL was added and the FP immediately measured for up to 60 minutes (90 minutes for E. coli PBP2). […] The beta-lactam potency was reported as the concentration of beta-lactam required to reduce the amount of PBP bound-Bocillin-FL by 50% (EC50). […] Binding assays for boronic acid PBP inhibitors were performed in an identical fashion for the respective PBPs

E. coli AG100A = experiment: Broth microdilution MIC in CAMHB; type: cell-based; conditions: Escherichia coli, read-out: Minimum Inhibitory Concentration, E. coli AG100A
Outline: (§5)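 Standard CLSI-style microdilution in cation-adjusted Mueller Hinton broth, 2-fold dilution series, incubated 16-20 h at 37° C; endpoint was visual absence of growth.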

P. aeruginosa ATCC 27853 = experiment: Broth microdilution MIC in CAMHB; type: cell-based; conditions: Pseudomonas aeruginosa, ATCC27853; MHB; read-out: Minimum Inhibitory Concentration, P. aeruginosa ATCC 27853
Outline: as §5

E. coli AG100 = experiment: Broth microdilution MIC in CAMHB; type: cell-based; conditions: Escherichia coli; E. coli AG100 (wild-type parent); MHB; read-out: Minimum Inhibitory Concentration, E. coli AG100
Outline: as §5

[3] = test system: P. aeruginosa (ΔmexAB-oprM); experiment: Broth microdilution MIC in CAMHB; type: cell-based; conditions: Pseudomonas aeruginosa, read-out: Minimum Inhibitory Concentration, P. aeruginosa ΔmexAB-OprM
Outline: as §5

E. coli ATCC 25922 = experiment: Broth microdilution MIC in CAMHB; type: cell-based; conditions: Escherichia coli, ATCC25922; E. coli ATCC 25922; MHB; read-out: Minimum Inhibitory Concentration, E. coli 25922
Outline: as §5

E. coli D22 = experiment: Broth microdilution MIC in CAMHB; type: cell-based; conditions: Escherichia coli; E. coli D22 (hyper-permeable); MHB; read-out: Minimum Inhibitory Concentration, E. coli D22
Outline: as §5

P. aeruginosa ATCC 35151 = experiment: Broth microdilution MIC in CAMHB; type: cell-based; conditions: Pseudomonas aeruginosa, ATCC35151; MHB; hyper-permeable strain; read-out: Minimum Inhibitory Concentration, P. aeruginosa ATCC 35151
Outline: as §5

[4] = test system: K. pneumoniae UMM producing SHV-5 and KPC-2; experiment: Broth microdilution MIC in CAMHB; type: cell-based; conditions: Klebsiella pneumoniae, read-out: Minimum Inhibitory Concentration, K. pneumoniae UMM
Outline: as §5

E. coli 901C = experiment: Broth microdilution MIC in CAMHB; type: cell-based; conditions: Escherichia coli; E. coli 901C (hyper-permeable); MHB; read-out: Minimum Inhibitory Concentration, E. coli 901C
Outline: as §5

[5] = test system: K. pneumoniae 848844 producing SHV-11 and KPC-2; experiment: Broth microdilution MIC in CAMHB; type: cell-based; conditions: Klebsiella pneumoniae, read-out: Minimum Inhibitory Concentration, K. pneumoniae 848844
Outline: as §5

A. baumannii ATCC 19606 = experiment: Broth microdilution MIC in CAMHB; type: cell-based; conditions: Acinetobacter baumannii, ATCC19606; MHB; read-out: Minimum Inhibitory Concentration, A. baumannii ATCC 19606
Outline: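 Lowest compound concentration with no visible growth after 16-20 h at 37 °C defines MIC. Plates of 2-fold serial dilutions in cation-adjusted Mueller Hinton broth received 2-8×10^5 CFU/mL of exponentially grown cells, per CLSI methods; panel spans reference, hyper-permeable and efflux-pump-deleted strains.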

[6] = test system: K. pneumoniae SI-117 producing VIM-1; experiment: Broth microdilution MIC in CAMHB; type: cell-based; conditions: Klebsiella pneumoniae, read-out: Minimum Inhibitory Concentration, K. pneumoniae SI-117
Outline: as §5

P. aeruginosa PBP3 = target: T2, P. aeruginosa PBP3 (Pseudomonas aeruginosa, UniProt G3XD46); experiment: Bocillin-FL fluorescence polarization competition binding assay, P. aeruginosa PBP3; conditions: fluorescence polarization competition binding assay using Bocillin-FL
T2 construct: made in house
T2 sequence (G3XD46 whole entry): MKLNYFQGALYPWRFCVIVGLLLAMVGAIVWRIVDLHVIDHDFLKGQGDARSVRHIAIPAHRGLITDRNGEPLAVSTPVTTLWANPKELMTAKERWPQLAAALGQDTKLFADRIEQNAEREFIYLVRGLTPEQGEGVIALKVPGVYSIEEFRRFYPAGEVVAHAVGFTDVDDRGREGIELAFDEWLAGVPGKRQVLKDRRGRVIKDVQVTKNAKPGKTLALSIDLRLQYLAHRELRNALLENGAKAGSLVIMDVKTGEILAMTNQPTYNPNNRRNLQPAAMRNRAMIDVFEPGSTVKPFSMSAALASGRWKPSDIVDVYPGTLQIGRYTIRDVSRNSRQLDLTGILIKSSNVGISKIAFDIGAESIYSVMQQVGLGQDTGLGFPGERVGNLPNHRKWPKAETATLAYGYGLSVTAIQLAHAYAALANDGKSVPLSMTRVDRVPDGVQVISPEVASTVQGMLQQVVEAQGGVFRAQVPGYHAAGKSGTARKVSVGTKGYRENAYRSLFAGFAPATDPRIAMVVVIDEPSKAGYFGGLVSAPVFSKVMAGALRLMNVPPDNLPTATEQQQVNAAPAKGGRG
Outline: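 Inhibitor competition with Bocillin-FL for P. aeruginosa PBP3 was followed by fluorescence polarization on a Cytation3 (BioTek) reader, using g-factor 0.96, 490 nm excitation and 520 nm emission. The enzyme was at 0.75 μM and the probe at 0.1 μM in Hepes/NaCl/glycerol buffer, 80 μl per well. FP was recorded immediately after probe addition for up to 60 minutes. Potency was expressed as EC50, the concentration that reduces bound probe by 50%.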

N. gonorrhoeae PBP2 = target: T3, N. gonorrhoeae PBP2 (Neisseria gonorrhoeae, UniProt P08149); experiment: Bocillin-FL fluorescence polarization competition binding assay, N. gonorrhoeae PBP2; conditions: N. gonorrhoeae PBP2; assay validation with beta-lactams; read-out: EC50 (concentration of beta-lactam required to reduce the amount of PBP bound-Bocillin-FL by 50%)
T3 construct: made in house
T3 sequence (P08149 whole entry): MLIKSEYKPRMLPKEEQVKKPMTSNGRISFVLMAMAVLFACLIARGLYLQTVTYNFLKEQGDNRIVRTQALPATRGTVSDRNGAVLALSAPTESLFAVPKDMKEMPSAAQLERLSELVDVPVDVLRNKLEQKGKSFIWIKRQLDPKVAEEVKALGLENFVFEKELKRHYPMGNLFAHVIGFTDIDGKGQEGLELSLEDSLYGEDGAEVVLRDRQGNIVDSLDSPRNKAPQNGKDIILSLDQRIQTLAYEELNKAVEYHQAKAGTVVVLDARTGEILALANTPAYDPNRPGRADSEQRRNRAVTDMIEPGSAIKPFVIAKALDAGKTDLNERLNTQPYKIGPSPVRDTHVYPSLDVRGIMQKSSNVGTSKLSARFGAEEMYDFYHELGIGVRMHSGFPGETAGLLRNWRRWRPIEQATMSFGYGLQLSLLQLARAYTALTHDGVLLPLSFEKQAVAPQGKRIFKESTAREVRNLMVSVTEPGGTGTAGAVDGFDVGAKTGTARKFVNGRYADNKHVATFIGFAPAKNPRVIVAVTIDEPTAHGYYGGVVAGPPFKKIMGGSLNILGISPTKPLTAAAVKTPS
Text: as §3, §4

Structure (SMILES)	EC50 (E. coli K12 PBP3)	EC50 [2]	MIC (E. coli AG100A)	MIC (P. aeruginosa ATCC 27853)	MIC (E. coli AG100)	MIC [3]	MIC (E. coli ATCC 25922)	MIC (E. coli D22)	MIC (P. aeruginosa ATCC 35151)	MIC [4]	MIC (E. coli 901C)	MIC [5]	MIC (A. baumannii ATCC 19606)	MIC [6]	P. aeruginosa PBP3 Potency (P. aeruginosa PBP3)	further results
CC(C)(C)[C@@H](NC(=O)c1c(F)cc(O)c(O)c1Cl)C(=O)N[C@H]1Cc2ccc(F)c(C(=O)O)c2OB1O [Example 12, (R)-3-((R)-2-(2-chloro-6-fluoro-3,4-dihydroxybenzamido)-3,3-dimethylbutanamido)-7-fluoro-2-hydroxy-3,4-dihydro-2H-benzo[e][1,2]oxaborinine-8-carboxylic acid]	30 to 500 µM															MIC (N. gonorrhoeae FA1090): > 64 µg/mL; MIC (N. gonorrhoeae H041): > 64 µg/mL; MIC [1]: > 64 µg/mL; MIC (N. gonorrhoeae WHO K): > 64 µg/mL; MIC (N. gonorrhoeae WHO G): > 64 µg/mL; MIC (N. gonorrhoeae WHO L): > 64 µg/mL; MIC (N. gonorrhoeae WHO Z): > 64 µg/mL
NCCCN1CCN(C(=O)N[C@@H](C(=O)N[C@H]2Cc3cccc(C(=O)O)c3OB2O)c2ncc(O)cc2F)C(=O)C1=O [Example 13, (R)-3-((R)-2-(4-(3-aminopropyl)-2,3-dioxopiperazine-1-carboxamido)-2-(3-fluoro-5-hydroxypyridin-2-yl)acetamido)-2-hydroxy-3,4-dihydro-2H-benzo[e][1,2]oxaborinine-8-carboxylic acid]	< 30 µM	< 10 µM	0.5 to 1 µg/mL (≈ 0.874 to 1.75 µM)	32 to 64 µg/mL (≈ 55.9 to 112 µM)	8 to 16 µg/mL (≈ 14 to 28 µM)	2 to 4 µg/mL (≈ 3.49 to 6.99 µM)	8 to 16 µg/mL (≈ 14 to 28 µM)	2 to 4 µg/mL (≈ 3.49 to 6.99 µM)	< 0.25 µg/mL	8 to 16 µg/mL (≈ 14 to 28 µM)	0.5 to 1 µg/mL (≈ 0.874 to 1.75 µM)	32 to 64 µg/mL (≈ 55.9 to 112 µM)	> 128 µg/mL	8 to 16 µg/mL (≈ 14 to 28 µM)	D (D represents a potency <10 μM)	
C[C@H]1CN(CCN)C(=O)C(=O)N1C(=O)N[C@@H](C(=O)N[C@H]1Cc2cccc(C(=O)O)c2OB1O)c1ncc(O)cc1F [Example 14, (R)-3-((R)-2-((S)-4-(2-aminoethyl)-6-methyl-2,3-dioxopiperazine-1-carboxamido)-2-(3-fluoro-5-hydroxypyridin-2-yl)acetamido)-2-hydroxy-3,4-dihydro-2H-benzo[e][1,2]oxaborinine-8-carboxylic acid]	< 30 µM	< 10 µM	0.5 to 1 µg/mL (≈ 0.874 to 1.75 µM)	> 128 µg/mL	8 to 16 µg/mL (≈ 14 to 28 µM)	8 to 16 µg/mL (≈ 14 to 28 µM)	8 to 16 µg/mL (≈ 14 to 28 µM)	2 to 4 µg/mL (≈ 3.49 to 6.99 µM)	0.5 to 1 µg/mL (≈ 0.874 to 1.75 µM)	8 to 16 µg/mL (≈ 14 to 28 µM)	0.5 to 1 µg/mL (≈ 0.874 to 1.75 µM)	32 to 64 µg/mL (≈ 55.9 to 112 µM)	> 128 µg/mL	32 to 64 µg/mL (≈ 55.9 to 112 µM)	D (D represents a potency <10 μM)	
C=CC1=C(C(=O)O)N2C(=O)[C@@H](NC(=O)/C(=N\OCC(=O)O)c3csc(N)n3)[C@H]2SC1 [cefixime, reference compound]																EC50 (N. gonorrhoeae PBP2): 0.26 µM
